Target: T1, human LPA1 (Homo sapiens, UniProt Q92633)
T1 construct: expressed in transfected cells; host or cells: CHO-K1
Assay: In vitro LPA1 calcium flux antagonist assay, Bioduro protocol
Assay type: cell-based
Details: CHO-K1 cells overexpressing human LPA1 and G15a; LPA challenge at EC80; calcium mobilization on FLIPR Tetra; read-out: IC50 (nM) in Assay B2
Experimental: In Vitro LPA1 Calcium Flux Antagonist Assay Bioduro Protocol
CHO-K1 cells overexpressing human LPA1 and G15a were seeded at a total volume of 20 uL (15000 cells/well) into Matrigel pre-coated 384-well plates (coming -3764) and incubated at 37° C. After overnight incubation, the cells were serum starved for 4 h. Assays were performed in dye loading buffer containing 1× Fluo-8 AM (AAT Bioquest, 21080) and 2.5 mM probenecid (Thermo Fisher, 36400) in HBSS/20 mM Hepes. After cell starvation, the medium was replaced with 20 uL of dye loading buffer and incubated at 37° C. for 30 min. Then 5 uL of 5× compound titrated in dye loading buffer was added to the cells and incubated for 30 min followed by LPA challenge at EC80. Calcium mobilization was measured on a FLIPR Tetra (MDS). For LPA EC80 determination, starved cells were incubated with 20 uL of dye loading buffer for 1 h, then 5 uL of 5×LPA titrated in dye loading buffer was added to the cells. Calcium signals induced by LPA was monitors on a FLIPR.
Percentage inhibition is calculated using the following formula:
% Inhibition=100%×(1−(mean RFU of test sample−mean RFU of DMSO)/(mean RFU of LPA control−mean RFU of DMSO)).

T1 sequence (Q92633 whole entry): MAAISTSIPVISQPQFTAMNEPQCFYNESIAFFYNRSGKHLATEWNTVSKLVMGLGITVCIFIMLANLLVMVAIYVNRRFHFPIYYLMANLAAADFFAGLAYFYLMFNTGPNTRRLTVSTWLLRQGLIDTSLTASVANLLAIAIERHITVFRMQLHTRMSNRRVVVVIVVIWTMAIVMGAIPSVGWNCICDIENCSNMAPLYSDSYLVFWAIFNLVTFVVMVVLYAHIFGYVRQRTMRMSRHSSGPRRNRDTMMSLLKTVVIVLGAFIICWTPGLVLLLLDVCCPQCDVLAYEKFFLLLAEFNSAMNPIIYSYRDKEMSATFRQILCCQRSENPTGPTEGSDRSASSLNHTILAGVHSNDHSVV

Row | IC50 [nM] | SMILES
1 | 812 | COc1cc([C@@H](O)[C@H](Cn2nnc3cccc(C(=O)O)c32)OC2CCCC2)cc(OC)c1C (racemic) [Compound 209]
2 | 37.4 | COc1cc([C@@H](O)[C@H](Cc2nc([C@H](C)C(=O)O)c(C)s2)OC2CCCC2)cc(OC)c1C (single isomer, unassigned) [Compound 239]
3 | 885 | COc1cc([C@@H](O)[C@H](Cc2nc([C@@H](C)C(=O)O)c(C)s2)OC2CCCC2)cc(OC)c1C (single isomer, unassigned) [Compound 240]
4 | 36.8 | COc1cc([C@@H](O)[C@H](Cn2cc3cccc(C(=O)O)c3n2)OCC(C)C)cc(OC)c1C [Compound 146]
5 | 126 | COc1cc([C@@H](O)[C@H](Cn2cc3cccc(C(=O)O)c3n2)OC2CCCC2)cc(OC)c1OC [Compound 147]
6 | 525 | COc1cc([C@@H](O)[C@H](Cn2cc3cccc(C(=O)O)c3n2)OC2CCCCC2)ccc1C(F)F [Compound 148]
7 | 299 | COc1cc([C@@H](O)[C@H](Cn2cc3cccc(C(=O)O)c3n2)OC2CCC(F)(F)CC2)cc(OC)c1C [Compound 149]
8 | 146 | Cc1ccc([C@@H](O)[C@H](Cn2cc3cccc(C(=O)O)c3n2)OC2CCCC2)cc1OC(F)(F)F [Compound 150]
9 | ≥ 10000 | Cc1ccc([C@@H](O)[C@H](Cn2cc3cccc(C(=O)O)c3n2)OC2CCCC2)cc1O [Compound 151]
10 | 8.53 | COC(=O)c1sc(C[C@H](OC2CCCC2)[C@H](O)c2cc(OC)c(C)c(OC)c2)nc1CC(=O)O [Compound 152]
11 | 5.42 | COc1cc([C@@H](O)[C@H](Cn2cc3c(F)ccc(C(=O)O)c3n2)OC2CCCC2)cc(OC)c1C [Compound 153]
12 | 8.64 | COc1cc([C@@H](O)[C@H](Cn2cc3cc(F)cc(C(=O)O)c3n2)OC2CCCC2)cc(OC)c1C [Compound 154]
13 | 308 | COc1cc([C@@H](O)[C@H](Cn2cc3ccc(F)c(C(=O)O)c3n2)OC2CCCC2)cc(OC)c1C [Compound 155]
14 | 301 | COc1cc([C@@H](O)[C@H](Cc2cn3nccc(C(=O)O)c3n2)OC2CCCC2)cc(OC)c1C [Compound 156]
15 | 6.3 | COc1cc([C@@H](O)[C@H](Cc2nc3c(C(=O)O)cccc3s2)OC2CCCC2)cc(OC)c1C [Compound 157, 2-((2S,3R)-2-(cyclopentyloxy)-3-(3,5-dimethoxy-4-methylphenyl)-3-hydroxypropyl)benzo[d]thiazole-4-carboxylic acid]
16 | 55.8 | COc1cc([C@@H](O)[C@H](Cn2cc3ccnc(C(=O)O)c3n2)OC2CCCC2)cc(OC)c1C [Compound 158]
17 | 49.6 | COc1cc([C@@H](O)[C@H](Cn2cc3cncc(C(=O)O)c3n2)OC2CCCC2)cc(OC)c1C [Compound 159]
18 | 138 | COc1cc([C@@H](O)[C@H](Cn2cc3nccc(C(=O)O)c3n2)OC2CCCC2)cc(OC)c1C [Compound 160, 2-((2S,3R)-2-(cyclopentyloxy)-3-(3,5-dimethoxy-4-methylphenyl)-3-hydroxypropyl)-2H-pyrazolo[4,3-b]pyridine-7-carboxylic acid]
19 | 6.28 | COc1cc([C@@H](O)[C@H](Cn2cc3cc(C)cc(C(=O)O)c3n2)OC2CCCC2)cc(OC)c1C [Compound 161]
20 | 3.93 | COc1cc([C@@H](O)[C@H](Cn2cc3cc(C(F)F)cc(C(=O)O)c3n2)OC2CCCC2)cc(OC)c1C [Compound 162]

Row | IC50 [nM] | SMILES
21 | 4.23 | COc1cc([C@@H](O)[C@H](Cn2cc3cc(C(F)(F)F)cc(C(=O)O)c3n2)OC2CCCC2)cc(OC)c1C [Compound 163]
22 | 11.9 | COc1cc(C(=O)O)c2nn(C[C@H](OC3CCCC3)[C@H](O)c3cc(OC)c(C)c(OC)c3)cc2c1 [Compound 164]
23 | 6.28 | COc1cc([C@@H](O)[C@H](Cn2cc3cc(C#N)cc(C(=O)O)c3n2)OC2CCCC2)cc(OC)c1C [Compound 165]
24 | 4.94 | COc1cc([C@@H](O)[C@H](Cn2cc3cc(C4CC4)cc(C(=O)O)c3n2)OC2CCCC2)cc(OC)c1C [Compound 166]
25 | > 10000 | COc1cc([C@@H](O)[C@H](Cc2nc3cccc(C(=O)O)n3n2)OC2CCCC2)cc(OC)c1C [Compound 167]
26 | > 10000 | COc1cc([C@@H](O)[C@H](Cc2nc3c(C(=O)O)cccn3n2)OC2CCCC2)cc(OC)c1C [Compound 168]
27 | 150 | COc1cc([C@@H](O)[C@H](Cc2cc3cccc(C(=O)O)n3n2)OC2CCCC2)cc(OC)c1C [Compound 169, 2-((2S,3R)-2-(cyclopentyloxy)-3-(3,5-dimethoxy-4-methylphenyl)-3-hydroxypropyl)pyrazolo[1,5-a]pyridine-7-carboxylic acid]
28 | > 10000 | COc1cc([C@@H](O)[C@H](Cn2nc3cccc(C(=O)O)c3n2)OC2CCCC2)cc(OC)c1C [Compound 170]
29 | ≥ 10000 | COc1cc([C@@H](O)[C@H](Cn2cc3cccc(C(=O)NS(C)(=O)=O)c3n2)OC2CCCC2)cc(OC)c1C [Compound 171]
30 | 4.01 | CCc1cc(C(=O)O)c2nn(C[C@H](OC3CCCC3)[C@H](O)c3cc(OC)c(C)c(OC)c3)cc2c1 [Compound 172]
31 | 6.09 | COc1cc([C@@H](O)[C@H](Cn2cc3cc(Cl)cc(C(=O)O)c3n2)OC2CCCC2)ccc1C(F)F [Compound 173]
32 | 103 | COc1cc([C@@H](O)[C@H](Cn2cc3c(=O)n(C)cc(C(=O)O)c3n2)OC2CCCC2)cc(OC)c1C [Compound 174]
33 | > 10000 | COc1cc([C@@H](O)[C@H](Cc2nc3c(C(=O)O)cccc3n2C)OC2CCCC2)cc(OC)c1C [Compound 175]
34 | 9.95 | COc1cc([C@@H](O)[C@H](Cc2nc3c(C(=O)O)cncc3s2)OC2CCCC2)cc(OC)c1C [Compound 176]
35 | 154 | COc1cc([C@@H](O)[C@H](Cc2nc(CC(=O)O)c(C)s2)OC2CCCC2)cc(OC)c1C [Compound 177, 2-(2-((2S,3R)-2-(cyclopentyloxy)-3-(3,5-dimethoxy-4-methylphenyl)-3-hydroxypropyl)-5-methylthiazol-4-yl)acetic acid]
36 | 73.8 | CCc1sc(C[C@H](OC2CCCC2)[C@H](O)c2cc(OC)c(C)c(OC)c2)nc1CC(=O)O [Compound 178]
37 | 20.3 | CCCc1sc(C[C@H](OC2CCCC2)[C@H](O)c2cc(OC)c(C)c(OC)c2)nc1CC(=O)O [Compound 179]
38 | 153 | COc1cc([C@@H](O)[C@H](Cn2cc3ccc(C#N)c(C(=O)O)c3n2)OC2CCCC2)cc(OC)c1C [Compound 180]
39 | > 10000 | COc1cc([C@@H](O)[C@H](Cn2cc3cccc(-c4nc(=O)o[nH]4)c3n2)OC2CCCC2)cc(OC)c1C [Compound 181]
40 | 79.2 | COc1cc([C@@H](O)[C@H](Cn2cc3c(C#N)ccc(C(=O)O)c3n2)OC2CCCC2)cc(OC)c1C [Compound 182]

Row | IC50 [nM] | SMILES
41 | > 10000 | COc1cc([C@@H](O)[C@H](Cn2cc3cccc(C#N)c3n2)OC2CCCC2)cc(OC)c1C [Compound 183]
42 | 24 | COc1cc([C@@H](O)[C@H](Cn2cc3nccc(C(=O)O)c3n2)OCCc2ccccc2)cc(OC)c1C [Compound 184]
43 | 15 | COc1cc([C@@H](O)[C@H](Cn2cc3nccc(C(=O)O)c3n2)OC2Cc3ccccc3C2)cc(OC)c1C [Compound 185]
44 | 7640 | COc1cc([C@@H](O)[C@H](Cn2cc3c(C(F)(F)F)ccc(C(=O)O)c3n2)OC2CCCC2)cc(OC)c1C [Compound 186]
45 | 132 | COc1cc([C@@H](O)[C@H](Cn2cc3nccc(C(=O)O)c3n2)OCCc2ccc(F)cc2)cc(OC)c1C [Compound 187]
46 | 447 | COc1cc([C@@H](O)[C@H](Cn2cc3nccc(C(=O)O)c3n2)OC2CCCC2)c(C)cc1C [Compound 188]
47 | 454 | COc1cc([C@@H](O)[C@H](Cn2cc3nccc(C(=O)O)c3n2)OC2CCCC2)ccc1C(F)F [Compound 189]
48 | 1530 | COc1cc([C@@H](O)[C@H](Cn2cc3nccc(C(=O)O)c3n2)OC2CCCC2)c(F)cc1C [Compound 190]
49 | 662 | COc1cc([C@@H](O)[C@H](Cn2cc3nccc(C(=O)O)c3n2)OC2CCCC2)ccc1C [Compound 191]
50 | 1120 | COc1c(C)ccc([C@@H](O)[C@H](Cn2cc3nccc(C(=O)O)c3n2)OC2CCCC2)c1C [Compound 192]
51 | 757 | COc1c(C)ccc([C@@H](O)[C@H](Cn2cc3nccc(C(=O)O)c3n2)OC2CCCC2)c1F [Compound 193]
52 | 26.9 | COc1cc([C@@H](O)[C@H](Cn2cc3nc(C)cc(C(=O)O)c3n2)OC2CCCC2)cc(OC)c1C [Compound 194]
53 | 32.3 | COc1cc([C@@H](O)[C@H](Cn2cc3cc(C)nc(C(=O)O)c3n2)OC2CCCC2)cc(OC)c1C [Compound 195]
54 | 16.3 | COc1cc([C@@H](O)[C@H](Cn2cc3nc(C4CC4)cc(C(=O)O)c3n2)OC2CCCC2)cc(OC)c1C [Compound 196]
55 | 23.8 | COc1cc(C(=O)O)c2nn(C[C@H](OC3CCCC3)[C@H](O)c3cc(OC)c(C)c(OC)c3)cc2n1 [Compound 197]
56 | 6.87 | COc1cc([C@@H](O)[C@H](Cn2cc3nc(Cl)cc(C(=O)O)c3n2)OC2CCCC2)cc(OC)c1C [Compound 198]
57 | 667 | COc1cc([C@@H](O)[C@H](Cn2cc3nccc(C(=O)O)c3n2)OC2CCCC2)c(C)c(OC)c1C [Compound 199]
58 | 1130 | COc1c(C)ccc([C@@H](O)[C@H](Cn2cc3nccc(C(=O)O)c3n2)OC2CCCC2)c1Cl [Compound 200]
